Measured values from patent US12612395B2, “Rocaglate derivatives and uses thereof” (TRUSTEES OF BOSTON UNIVERSITY, priority 2023, dated 2026).
Like-named read-outs stand apart in the source and are kept apart here.

System: GBM0308 CSCs
Experiment: Dose-response killing of GBM CSCs (PI/Hoechst, Celigo cytometer)
Assay type: cell-based
Conditions: for CSCs Max. observed efficacy (% dead cells): up to 10 μM
Text: The inventors first evaluated a cohort of seven rocaglate translation inhibitors (1, 3-7, and 9, FIG. 1A and Table 1, compounds 2 and 8 were not tested due to unavailability). To assay for compounds that selectively affect GBM CSCs, the inventors employed the patient-derived tumor-initiating cell (TIC) cell line […] that forms neurospheres (consisting exclusively of tumor-initiating cells or CSCs) when cultured in neurobasal (NBE) medium. Upon exposure to serum and growth factor withdrawal, however, the cell line differentiates, acquires a flattened morphology, and forms a non-CSC population.^20 Thus, compounds can be tested in parallel to assess their effect on GBM CSCs vs. GBM non-CSCs as separate populations with a clean and robust response. This approach has been previously used to perform RNAi-based genetic screens to identify modulators of CSCs.^20 In this study, GBM0308 cells, cultured in stem cell conditions to form CSCs or in medium containing serum to induce differentiation into a non-CSC population, were treated in parallel with compounds at varying doses. Three days post-treatment, propidium iodide (PI) and Hoechst staining were performed and quantified using a Celigo image cytometer. Hoechst dye stained all […] nucleated cells, while PI exclusively stained dead cells. Cell viability and the percentage of cell death were then determined.
Cell Culture: Glioblastoma stem cell lines GBM0308, BT145, and BT112 were cultured in neurobasal (NBE medium) containing N-2 and B-27 supplements, EGF, bFGF, L-glutamine, and Penicillin-Streptomycin), as described previously.^19 Adherent GBM cells were cultured in serum-containing DMEM media (Invitrogen) supplemented with 10% fetal bovine serum (Corning Cellgro™). Cells were incubated at 37° C. and 5% CO2 to allow neurosphere formation. For seeding and subculturing, the neurospheres were gently trypsinized with 0.025% trypsin to form a single-cell suspension.
Dose-Response Testing in GBM Cells: Briefly, on day 1, cells were seeded in triplicate. For CSCs, 1500 cells/well were plated in a low attachment 96-well plate with NBE media and incubated for 3 days at 37° C. and 5% CO2 to allow the formation of neurospheres. For non-CSCs, 3000 cells/well were plated in a 96-well plate with DMEM media supplemented with 10% FBS. Similarly, the assay plates were also incubated for the same duration. Compound treatments started on day 4. Each compound was resuspended in DMSO and then diluted to different concentrations in media to a final concentration of DMSO less than 1%. The compounds were added at concentrations of 10, 3.3, 1.11, 0.37, 0.12, 0.041, 0.013, and 0.004 µM, respectively. DMSO-treated cells served as a control. After 72 h incubation with the compounds, fluorescent stains, propidium iodide, and Hoechst 33342 (Life Technologies, Carlsbad, CA), were used to stain the GBM cells to determine cell viability. A staining solution in 1×PBS was prepared by mixing PI and Hoechst 33342 to working concentrations of 2.5 μM and 20 μM, respectively. 20 μL of this staining solution was added per well, and plates were incubated at 37° C. and 5% CO2 for 60 min. After incubation, plates were read by Celigo imaging cytometer using an inbuilt Celigo application; Cell Viability (Dead+Total). For the viability measurement, the total number of neurospheres/cells and dead neurospheres/cells in each well were counted by the cytometer. The percentage of PI+ cells was normalized to DMSO and plotted against the drug concentration to calculate the EC50 with a four-parameter, variable-slope dose-response curve with an upper constraint of <100% dead cells and a lower constraint of =0% dead cells (GraphPad Prism v.10.0.0). For all dose response experiments, the experimental maximal efficacy (maximum observed % cell death) is reported. Relative EC50 values are reported for all compounds killing >50% of cells.

SMILES	CSCs Max. observed efficacy (% dead cells) (Table 1, GBM0308 CSCs, 72 h) [%]	EC50 (Table 1, GBM0308 CSCs, 72 h treatment, relative EC50, given for compounds causing at least 50% cell death, read-out: CSCs EC50) [nM]	EC50 (GBM0308 CSCs, read-out: CSC EC50) [nM]	fold by which potency of CSC death is higher than effects on cap-dependent translation (CSC EC50 vs translation EC50) [fold]	EC50 (Homo sapiens, 72 h, Table 2, GBM0308 CSCs, 72 h treatment, relative EC50, read-out: CSCs EC50) [nM]	Emax (Homo sapiens, 72 h, read-out: CSCs Max. observed efficacy (% dead cells), Table 2, GBM0308 CSCs, 72 h, highest tested concentration 10 μM) [%]
CONC(=O)[C@H]1[C@@H](O)[C@@]2(O)c3c(OC)cc(OC)cc3O[C@@]2(c2ccc(Br)cc2)[C@@H]1c1ccccc1 [(−)-7, SDS-1-021]	92	7	–	–	–	–
CONC(=O)[C@H]1[C@@H](O)[C@@]2(O)c3c(OC)cc(OC)cc3O[C@@]2(c2ccc(OC)cc2)[C@@H]1c1ccccc1 [(−)-5, CR-1-31b, reference compound]	91	–	36	–	–	–
COc1cc(OC)c2c(c1)O[C@@]1(c3ccc(Br)cc3)[C@H](c3ccccc3)[C@@H](C(=O)NS(=O)(=O)N(C)C)[C@@H](O)[C@@]21O [(−)-20, (1R,2R,3S,3aR,8bS)-3a-(4-bromophenyl)-N—(N,N-dimethylsulfamoyl)-1,8b-dihydroxy-6,8-dimethoxy-3-phenyl-2,3,3a,8b-tetrahydro-1H-cyclopenta[b]benzofuran-2-carboxamide]	–	–	–	~20	45	93
